From ChEMBL document CHEMBL1208773, “Improving the permeability of the hydroxyethylamine BACE-1 inhibitors: structure-activity relationship of P2' substituents” (Bioorg Med Chem Lett, 2010) come the findings set out here.

A short description of data set [1]: Lipophilicity, log P of the compound. The data set is classed as physicochemical. To be noted: octanol/water.
Data set [2] in a line: Dissociation constant, pKa of the compound. The format is physicochemical.

In general, logP refers to the decadic logarithm of the partition coefficient of the neutral form, usually between octanol and water. Higher therefore signals a more lipophilic compound. For `CC(=O)N[C@@H](Cc1cc(F)cc(F)c1)[C@H](O)CNC1(c2cccc(C3CCCO3)c2)CCCCC1` (some centres undefined), in data set [1], the logP came to 4.
Same read-out and setting: with `CC(=O)N[C@@H](Cc1cc(F)cc(F)c1)[C@H](O)CNC1(c2cccc(C3CCOC3)c2)CCCCC1` (some centres undefined) the figure was 4.
The term pKa denotes the negative logarithm of the acid dissociation constant. Read a high pKa as a weaker acid or stronger base. The molecule `CC(=O)N[C@@H](Cc1cc(F)cc(F)c1)[C@H](O)CNC1(c2cccc(C(C)(C)C)c2)CCCCC1` showed a log partition coefficient (logP) in data set [1] of 4.8. In addition, the pKa in data set [2] amounted to 8.1.
